Results on 1 compound are retold here after the NIST ThermoML archive (doi:10.1016/j.jct.2016.10.006).

SMILES strings stand for the structures. ± gives the expanded uncertainty stated by the source.

The conditions of data set [1]: Crystal; DTA.
Data set [2] can be described thus: Molar enthalpy of transition or fusion. As to conditions: Crystal; DSC.

With `Cn1cnc([N+](=O)[O-])c1Cl` [5-chloro-1-methyl-4-nitroimidazole], in data set [1], the Normal melting temperature is 148.20 ± 1.1 °C. For the same compound, the “Molar enthalpy of transition or fusion” value in data set [2] is 5.36 ± 0.222 kcal/mol.
